Laboratory results reported in patent US20100311729A1, “Substituted imidazopyridazines and pyrrolopyrimidines as lipid kinase inhibitors” (priority 2007, published 2010).

What was measured:
Format in all cases: biochemical
PI3K delta = biological target: T1, PI3K delta (Homo sapiens, UniProt O00329); assay: PI3 kinase assay (Kinase-Glo luminescence), PI3K delta; settings: Enzymatic Data; read-out: PI3K delta IC50 [umol]
T1 construct: for the full-length p110-d subunit are generated and fused by overlapping PCR; His tag (C); made in house; host or cells: baculovirus; Tn5 (Trichoplusia ni) or TiniPro insect cells
In short: (§1)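 Recombinant PI3K constructs (alfa 10 nM, delta 10 nM, gamma 150 nM) with 1 μM ATP and 10 μg/mL phosphatidylinositol in Tris pH 7.5, MgCl2, NaCl, CHAPS, DTT; 60 min (alfa, delta) or 120 min (gamma) at room temperature. ATP depletion read by Kinase-Glo luminescence; IC50 from 4-parameter logistic fit over 8 concentrations.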

PI3K beta = biological target: T2, PI3K beta (Homo sapiens, UniProt P42338); assay: PI3 kinase assay (Kinase-Glo luminescence), PI3K beta; settings: Enzymatic Data; read-out: PI3K beta IC50 [umol]
T2 construct: for the full-length p110-b subunit are generated and fused by overlapping PCR; His tag (C); made in house; host or cells: baculovirus; Tn5 (Trichoplusia ni) or TiniPro insect cells
In short: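 PI3Kβ (25 nM, BV-949) with 10 μg/mL phosphatidylinositol in Tris pH 7.5/MgCl2/NaCl/CHAPS/DTT buffer; reaction started with 1 μM ATP, 60 min at room temperature. ATP depletion read by Kinase-Glo luminescence; 8-point dilutions, IC50 by four-parameter logistic fit.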

PI3K gamma = biological target: T3, PI3K gamma (Homo sapiens, UniProt P48736); assay: PI3 kinase assay (Kinase-Glo luminescence), PI3K gamma; settings: Enzymatic Data; read-out: PI3K gamma IC50 [umol]
T3 construct: PI3Kγ BV-950 p110g(D144aa)-C-Term His Tag; His tag (C); made in house; host or cells: construct from the Roger Williams lab (MRC LMB) in pVL1393; baculovirus; Tn5 (Trichoplusia ni) or TiniPro insect cells
In short: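 Percent inhibition at eight concentrations (typically 10 to 0.003 […]) fitted to a four-parameter logistic model to give IC50. Reaction initiated with ATP; final ATP 1 μM and phosphatidylinositol 10 μg/mL; ATP consumption read by Kinase-Glo luminescence.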

PI3K alfa = biological target: T4, PI3K alfa (Homo sapiens, UniProt P42336); assay: PI3 kinase assay (Kinase-Glo luminescence), PI3K alfa; settings: Enzymatic Data; read-out: PI3K alfa IC50 [umol]
T4 construct: for the p110-a subunit (with a deletion of the first 20 amino acids); His tag (C); made in house; host or cells: baculovirus; Tn5 (Trichoplusia ni) or TiniPro insect cells
In short: as §1

T3 sequence (P48736 144-1102 limits assumed): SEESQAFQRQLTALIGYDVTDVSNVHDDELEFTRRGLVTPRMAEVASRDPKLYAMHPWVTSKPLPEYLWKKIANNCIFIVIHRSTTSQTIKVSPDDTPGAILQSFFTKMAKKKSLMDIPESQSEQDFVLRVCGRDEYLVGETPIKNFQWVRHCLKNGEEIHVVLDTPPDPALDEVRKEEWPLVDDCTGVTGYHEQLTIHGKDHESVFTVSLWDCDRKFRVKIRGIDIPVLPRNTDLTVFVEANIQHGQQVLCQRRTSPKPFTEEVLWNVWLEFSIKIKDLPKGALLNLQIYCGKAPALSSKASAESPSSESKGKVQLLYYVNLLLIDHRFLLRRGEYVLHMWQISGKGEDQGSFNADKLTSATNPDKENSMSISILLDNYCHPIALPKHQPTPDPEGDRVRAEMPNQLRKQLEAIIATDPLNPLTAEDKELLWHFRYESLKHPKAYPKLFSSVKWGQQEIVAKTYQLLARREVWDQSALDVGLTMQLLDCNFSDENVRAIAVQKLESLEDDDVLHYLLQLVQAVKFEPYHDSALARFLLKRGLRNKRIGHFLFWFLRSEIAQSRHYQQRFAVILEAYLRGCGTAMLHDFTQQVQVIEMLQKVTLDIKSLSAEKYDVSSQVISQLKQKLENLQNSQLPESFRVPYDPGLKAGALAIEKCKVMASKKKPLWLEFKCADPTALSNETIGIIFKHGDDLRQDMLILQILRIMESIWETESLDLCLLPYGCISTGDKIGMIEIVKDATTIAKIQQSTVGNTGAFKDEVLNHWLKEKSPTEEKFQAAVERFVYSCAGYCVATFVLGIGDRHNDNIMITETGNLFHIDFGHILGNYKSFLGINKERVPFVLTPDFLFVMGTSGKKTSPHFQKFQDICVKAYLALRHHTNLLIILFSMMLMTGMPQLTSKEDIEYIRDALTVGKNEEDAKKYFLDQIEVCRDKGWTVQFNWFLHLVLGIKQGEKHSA
T1 sequence (O00329 with tags, fused parts or gaps limits assumed): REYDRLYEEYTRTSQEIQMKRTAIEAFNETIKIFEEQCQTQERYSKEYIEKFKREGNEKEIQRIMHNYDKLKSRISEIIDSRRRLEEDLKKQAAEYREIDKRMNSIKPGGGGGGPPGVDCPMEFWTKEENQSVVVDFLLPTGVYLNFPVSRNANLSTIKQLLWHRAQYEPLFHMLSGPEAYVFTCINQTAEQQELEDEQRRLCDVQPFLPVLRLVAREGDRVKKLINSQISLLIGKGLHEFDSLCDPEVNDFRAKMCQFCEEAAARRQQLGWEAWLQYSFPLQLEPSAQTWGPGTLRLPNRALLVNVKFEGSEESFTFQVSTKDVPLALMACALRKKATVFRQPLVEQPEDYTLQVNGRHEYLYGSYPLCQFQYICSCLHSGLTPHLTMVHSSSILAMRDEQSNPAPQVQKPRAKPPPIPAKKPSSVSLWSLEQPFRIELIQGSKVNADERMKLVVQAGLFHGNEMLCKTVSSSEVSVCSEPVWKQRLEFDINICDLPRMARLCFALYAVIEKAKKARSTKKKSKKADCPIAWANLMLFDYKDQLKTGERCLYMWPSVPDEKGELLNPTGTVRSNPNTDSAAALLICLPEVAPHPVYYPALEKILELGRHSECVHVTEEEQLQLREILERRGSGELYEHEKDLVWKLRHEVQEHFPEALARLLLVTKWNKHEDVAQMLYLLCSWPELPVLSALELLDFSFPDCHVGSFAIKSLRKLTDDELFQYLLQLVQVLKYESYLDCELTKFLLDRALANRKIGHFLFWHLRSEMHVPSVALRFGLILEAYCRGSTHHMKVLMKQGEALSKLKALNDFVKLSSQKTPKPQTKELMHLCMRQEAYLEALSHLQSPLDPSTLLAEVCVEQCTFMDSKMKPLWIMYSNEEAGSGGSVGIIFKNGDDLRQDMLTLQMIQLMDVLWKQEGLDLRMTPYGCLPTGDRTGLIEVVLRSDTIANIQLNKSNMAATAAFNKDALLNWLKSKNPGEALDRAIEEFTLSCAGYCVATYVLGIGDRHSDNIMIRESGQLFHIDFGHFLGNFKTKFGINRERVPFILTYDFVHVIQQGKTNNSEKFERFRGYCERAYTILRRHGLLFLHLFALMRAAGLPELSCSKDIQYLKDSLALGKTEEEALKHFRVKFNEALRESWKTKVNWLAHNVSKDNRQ
T2 sequence (P42338 with tags, fused parts or gaps limits assumed): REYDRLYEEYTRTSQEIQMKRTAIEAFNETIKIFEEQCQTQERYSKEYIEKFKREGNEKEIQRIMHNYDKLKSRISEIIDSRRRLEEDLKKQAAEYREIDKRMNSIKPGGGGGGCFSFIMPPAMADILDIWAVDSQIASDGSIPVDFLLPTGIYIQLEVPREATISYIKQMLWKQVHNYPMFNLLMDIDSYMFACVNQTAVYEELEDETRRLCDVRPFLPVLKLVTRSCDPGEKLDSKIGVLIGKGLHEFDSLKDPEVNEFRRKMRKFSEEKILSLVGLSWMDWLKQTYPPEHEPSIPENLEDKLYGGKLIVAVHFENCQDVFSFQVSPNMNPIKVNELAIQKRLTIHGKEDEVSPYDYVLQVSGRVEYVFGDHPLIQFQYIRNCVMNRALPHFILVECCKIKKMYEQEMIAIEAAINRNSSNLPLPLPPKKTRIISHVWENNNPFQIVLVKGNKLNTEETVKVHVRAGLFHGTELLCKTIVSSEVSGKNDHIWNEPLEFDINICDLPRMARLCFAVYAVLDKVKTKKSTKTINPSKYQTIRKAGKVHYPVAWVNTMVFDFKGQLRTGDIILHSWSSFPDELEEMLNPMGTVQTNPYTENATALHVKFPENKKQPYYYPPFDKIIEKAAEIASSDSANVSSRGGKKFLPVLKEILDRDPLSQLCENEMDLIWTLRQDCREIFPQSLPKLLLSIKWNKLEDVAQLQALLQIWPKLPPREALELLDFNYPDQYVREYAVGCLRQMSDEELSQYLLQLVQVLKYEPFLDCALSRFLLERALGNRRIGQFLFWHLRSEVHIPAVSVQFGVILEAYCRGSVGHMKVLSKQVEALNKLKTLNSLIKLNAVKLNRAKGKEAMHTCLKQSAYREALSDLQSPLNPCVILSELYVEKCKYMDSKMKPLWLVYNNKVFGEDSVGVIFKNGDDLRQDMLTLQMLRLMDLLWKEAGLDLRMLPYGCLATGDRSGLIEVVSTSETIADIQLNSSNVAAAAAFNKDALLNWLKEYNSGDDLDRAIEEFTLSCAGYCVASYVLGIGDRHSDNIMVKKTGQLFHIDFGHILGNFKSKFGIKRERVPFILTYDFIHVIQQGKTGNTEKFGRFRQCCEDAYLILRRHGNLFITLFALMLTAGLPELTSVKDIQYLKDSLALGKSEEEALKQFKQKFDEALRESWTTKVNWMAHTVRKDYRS
T4 sequence (P42336 with tags, fused parts or gaps limits assumed): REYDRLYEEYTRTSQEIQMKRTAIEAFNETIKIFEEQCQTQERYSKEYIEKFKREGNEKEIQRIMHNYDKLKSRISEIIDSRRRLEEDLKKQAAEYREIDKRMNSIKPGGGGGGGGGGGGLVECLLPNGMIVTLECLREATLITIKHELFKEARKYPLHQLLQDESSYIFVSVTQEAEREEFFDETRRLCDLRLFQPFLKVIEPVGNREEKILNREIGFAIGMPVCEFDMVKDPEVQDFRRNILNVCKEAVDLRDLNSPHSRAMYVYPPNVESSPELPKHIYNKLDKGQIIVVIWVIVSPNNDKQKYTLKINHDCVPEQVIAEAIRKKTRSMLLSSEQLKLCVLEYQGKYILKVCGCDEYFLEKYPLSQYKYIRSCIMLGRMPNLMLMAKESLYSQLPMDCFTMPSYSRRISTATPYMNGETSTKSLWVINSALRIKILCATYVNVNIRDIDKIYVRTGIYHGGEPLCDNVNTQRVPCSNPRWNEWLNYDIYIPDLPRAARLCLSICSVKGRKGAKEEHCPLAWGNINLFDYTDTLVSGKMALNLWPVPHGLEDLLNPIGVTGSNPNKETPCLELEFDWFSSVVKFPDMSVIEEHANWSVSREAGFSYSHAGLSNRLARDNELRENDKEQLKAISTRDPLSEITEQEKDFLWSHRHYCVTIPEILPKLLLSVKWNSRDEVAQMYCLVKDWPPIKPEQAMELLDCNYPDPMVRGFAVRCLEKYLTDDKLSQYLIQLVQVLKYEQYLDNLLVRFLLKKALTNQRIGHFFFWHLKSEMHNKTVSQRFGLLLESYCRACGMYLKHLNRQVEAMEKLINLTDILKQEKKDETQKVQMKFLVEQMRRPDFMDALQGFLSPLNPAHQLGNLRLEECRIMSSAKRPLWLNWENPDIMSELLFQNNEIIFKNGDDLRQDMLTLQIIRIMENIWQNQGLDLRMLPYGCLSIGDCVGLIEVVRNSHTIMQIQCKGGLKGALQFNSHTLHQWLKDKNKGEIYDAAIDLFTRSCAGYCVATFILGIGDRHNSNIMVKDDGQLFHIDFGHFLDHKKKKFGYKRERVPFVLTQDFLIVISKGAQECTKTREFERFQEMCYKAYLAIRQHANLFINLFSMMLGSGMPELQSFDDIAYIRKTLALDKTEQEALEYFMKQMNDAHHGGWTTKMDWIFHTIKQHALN

| IC50 (PI3K delta) | IC50 (PI3K beta) | IC50 (PI3K gamma) | IC50 (PI3K alfa) | SMILES |
| --- | --- | --- | --- | --- |
| 13 nM | 40 nM | 485 nM | 9 nM | Nc1ncc(-c2ccc3ncc(-c4ccc(C(=O)NCCCN5CCOCC5)cc4F)n3n2)cc1C(F)(F)F [Example 152, 4-[6-(6-Amino-5-trifluoro-methyl-pyridin-3-yl)-imidazo [1,2-b]pyridazin-3-yl]-3-fluoro-N-(3-morpholin-4-yl-propyl)-benzamide] |
| 13 nM | 271 nM | 1260 nM | 8 nM | Nc1ncc(-c2ccc3ncc(-c4ccc(C(=O)NCCN5CCS(=O)(=O)CC5)cc4F)n3n2)cc1C(F)(F)F [Example 153, 4-[6-(6-Amino-5-trifluoro-methyl-pyridin-3-yl)-imidazo [1,2-b]pyridazin-3-yl]-N-[2-(1,1-dioxo-1lambda*6*- thio-morpholin-4-yl)-ethyl]-3-fluoro-benzamide] |
| 6 nM | 71 nM | 267 nM | 5 nM | Nc1ncc(-c2ccc3ncc(-c4ccc(C(=O)NCCN5CCS(=O)(=O)CC5)cc4)n3n2)cc1C(F)(F)F [Example 154, 4-[6-(6-Amino-5-trifluoro-methyl-pyridin-3-yl)-imidazo [1,2-b]pyridazin-3-yl]-N-[2-(1,1-dioxo-1lambda*6*- thio-morpholin-4-yl)-ethyl]-benzamide] |
| 174 nM | 639 nM | > 9100 nM | 70 nM | Nc1ncc(-c2cnc3ccc(-c4ccc5c(c4)OCO5)nn23)cc1C(F)(F)F [Example 155, 5-(6-Benzo[1,3]dioxol-5-yl-imidazo [1,2-b]pyridazin-3-yl)-3-trifluoro-methyl-pyridin-2-ylamine] |
| 14 nM | 73 nM | 400 nM | 8 nM | Nc1ncc(-c2ccc3ncc(-c4ccc(C(=O)NCCn5ccnc5)cc4F)n3n2)cc1C(F)(F)F [Example 156, 4-[6-(6-Amino-5-trifluoro-methyl-pyridin-3-yl)-imidazo [1,2-b]pyridazin-3-yl]-3-fluoro-N-(2-imidazol-1-yl-ethyl)-benzamide] |
| 202 nM | 842 nM | 2040 nM | 21 nM | Nc1ncc(-c2cnc3ccc(-c4ccc(OCCNC(=O)C5CC5)cc4)nn23)cc1C(F)(F)F [Example 157, Cyclo-propane-carboxylic acid (2-{4-[3-(6-amino-5-trifluoro-methyl-pyridin-3-yl)-imidazo [1,2-b]pyridazin-6-yl]-phenoxy}-ethyl)-amide] |
| 113 nM | 388 nM | > 9100 nM | 38 nM | COc1cc(-c2cnc3ccc(-c4cnc(N)c(C(F)(F)F)c4)nn23)c(F)cc1C(=O)NCCN1CCOCC1 [Example 158, 4-[6-(6-Amino-5-trifluoro-methyl-pyridin-3-yl)-imidazo [1,2-b]pyridazin-3-yl]-5-fluoro-2-methoxy-N-(2-morpholin-4-yl-ethyl)-benzamide] |
| 13 nM | 36 nM | 617 nM | 18 nM | COc1cc(-c2cnc3ccc(-c4cnc(N)c(C(F)(F)F)c4)nn23)c(F)cc1C(=O)NCCCN1CCOCC1 [Example 159, 4-[6-(6-Amino-5-trifluoro-methyl-pyridin-3-yl)-imidazo [1,2-b]pyridazin-3-yl]-5-fluoro-2-methoxy-N-(3-morpholin-4-yl-propyl)-benzamide] |
| 39 nM | 144 nM | 1260 nM | 22 nM | COc1cc(-c2cnc3ccc(-c4cnc(N)c(C(F)(F)F)c4)nn23)c(F)cc1C(=O)NCCN1CCS(=O)(=O)CC1 [Example 160, 4-[6-(6-Amino-5-trifluoro-methyl-pyridin-3-yl)-imidazo [1,2-b]pyridazin-3-yl]-N-[2-(1,1-dioxo-1lambda*6*- thio-morpholin-4-yl)-ethyl]-5-fluoro-2-methoxy-benzamide] |
| 9 nM | 28 nM | 2400 nM | 3 nM | COc1cc(-c2cnc3ccc(-c4cnc(N)c(C(F)(F)F)c4)nn23)c(F)cc1C(=O)NCCn1ccnc1 [Example 161, 4-[6-(6-Amino-5-trifluoro-methyl-pyridin-3-yl)-imidazo (1,2-b]pyridazin-3-yl]-5-fluoro-N-(2-imidazol-1-yl-ethyl)-2-methoxy-benzamide] |
| > 9100 nM | > 9100 nM | > 9100 nM | 379 nM | CC(C)(C)OC(=O)N1CCC(Oc2ccc(-c3ccc4ncc(-c5cnc(N)c(C(F)(F)F)c5)n4n3)cc2)CC1 [Example 162, 4-{4-[3-(6-Amino-5-trifluoro-methyl-pyridin-3-yl)-imidazo [1,2-b]pyridazin-6-yl]-phenoxy}-piperidine-1-carboxylic acid tert-butyl ester] |
| 86 nM | 908 nM | 1890 nM | 69 nM | Nc1ncc(-c2cnc3ccc(-c4ccc(OCCCN5CCNC5=O)cc4)nn23)cc1C(F)(F)F [Example 163, 1-(3-{4-[3-(6-Amino-5-trifluoro-methyl-pyridin-3-yl)-imidazo [1,2-b]pyridazin-6-yl]-phenoxy}-propyl)-imidazolidin-2-one] |

Second part, the compound before the results:

| SMILES | IC50 (PI3K delta) | IC50 (PI3K beta) | IC50 (PI3K gamma) | IC50 (PI3K alfa) |
| --- | --- | --- | --- | --- |
| NCCCOc1ccc(-c2cnc3ccc(-c4cnc(N)c(C(F)(F)F)c4)nn23)cc1 [Example 141, 5-{3-[4-(3-Amino-propoxy)-phenyl]-imidazo [1,2-b]pyridazin-6-yl}-3-trifluoro-methyl-pyridin-2-ylamine] | 201 nM | 134 nM | 7250 nM | 151 nM |
| Nc1ncc(-c2ccc3ncc(-c4ccc(OCCCNC(=O)C5CC5)cc4)n3n2)cc1C(F)(F)F [Example 142, Cyclo-propane-carboxylic acid (3-{4-[6-(6-amino-5-trifluoro-methyl-pyridin-3-yl)-imidazo [1,2-b]pyridazin-3-yl]-phenoxy}-propyl)-amide] | 319 nM | 3160 nM | > 9100 nM | 45 nM |
| Nc1ncc(-c2ccc3ncc(-c4cnc5c(c4)ncn5CCN4CCOCC4)n3n2)cc1C(F)(F)F [Example 143, 5-{3-[3-(2-Morpholin-4-yl-ethyl)-3H-imidazo [4,5-b]pyridin-6-yl]-imidazo [1,2-b]pyridazin-6-yl}-3-trifluoro-methyl-pyridin-2-ylamine] | 28 nM | 72 nM | 1180 nM | 44 nM |
| Nc1ncc(-c2ccc3ncc(-c4ccc(C(=O)N5CCN(CC(=O)N6CCOCC6)CC5)cc4)n3n2)cc1C(F)(F)F [Example 144, 2-(4-{4-[6-(6-Amino-5-trifluoro-methyl-pyridin-3-yl)-imidazo [1,2-b]pyridazin-3-yl]-benzoyl}-piperazin-1-yl)-1-morpholin-4-yl-ethanone] | 266 nM | 533 nM | 5900 nM | 175 nM |
| Nc1ncc(-c2ccc3ncc(-c4ccc(C(=O)N5CCN(CCO)CC5)cc4)n3n2)cc1C(F)(F)F [Example 145] | 151 nM | 508 nM | 6920 nM | 97 nM |
| Nc1ncc(-c2cnc3ccc(-c4ccc(OCC5(NC(=O)C6CC6)COC5)cc4)nn23)cc1C(F)(F)F [Example 146, Cyclopropanecarboxylic acid (3-{4-[3-(6-amino-5-trifluoromethyl-pyridin-3-yl)-imidazo[1,2-b]pyridazin-6-yl]-phenoxymethyl}-oxetan-3-yl)-amide] | 280 nM | 2540 nM | 1730 nM | 54 nM |
| CCN(CC)CCn1cnc2cc(-c3cnc4ccc(-c5cnc(N)c(C(F)(F)F)c5)nn34)cnc21 [Example 149, 5-{3-[3-(2-Diethyl-amino-ethyl)-3H-imidazo [4,5-b]pyridin-6-yl]-imidazo [1,2-b]pyridazin-6-yl}-3-trifluoro-methyl-pyridin-2-ylamine] | 14 nM | 40 nM | 404 nM | 19 nM |
| Nc1ncc(-c2ccc3ncc(-c4ccc(C(=O)NCCn5ccnc5)cc4)n3n2)cc1C(F)(F)F [Example 150, 4-[6-(6-Amino-5-trifluoro-methyl-pyridin-3-yl)-imidazo [1,2-b]pyridazin-3-yl]-N-{2-imidazol-1-yl-ethyl)-benzamide] | 31 nM | 132 nM | > 9100 nM | 13 nM |
| Nc1ncc(-c2ccc3ncc(-c4ccc(C(=O)NCCN5CCOCC5)cc4F)n3n2)cc1C(F)(F)F [Example 151, 4-[6-(6-Amino-5-trifluoro-methyl-pyridin-3-yl)-imidazo [1,2-b]pyridazin-3-yl]-3-fluoro-N-(2-morpholin-4-yl-ethyl)-benzamide] | 27 nM | 141 nM | 946 nM | 8 nM |
